# Test results as given in patent publication US11479550B2, “EP4 antagonist” (ONO PHARMACEUTICAL CO., LTD., priority 2017, dated 2022).
# Biological target: human EP4 receptor (Homo sapiens (Human), UniProt P35408)
# Assay: EP4 antagonistic activity measurement experiment using prostanoid receptor subtype expressing cells
# Assay type: cell-based
# Settings: CHO cells expressing human EP4 receptor; inhibition of cAMP production by PGE2 10 nM; 30 minutes at room temperature
# Method: CHO cells expressing human EP4 receptor subtypes were prepared according to the methods of Nishigaki et al. (Non-Patent Literature 4), and used for experiment. Cells cultured to subconfluent were detached, and suspended in an assay medium (MEM containing 1 mmol/L IBMX, 1% HSA) such that a concentration became 1×10^6 cells/mL. For reaction, PGE2 was added to the cell suspension (25 μL) in a final concentration of 10 nmol/L, either alone or as a 25-μL PGE2 solution containing the test compound. After 30 minutes of reaction at room temperature, the amount of cAMP in the cells was quantified according to the method in the descriptions of the cAMP assay kit (CISBIO).
# Note here that the antagonistic effect (IC50 value) of the test compound was calculated as a value that represents an inhibition rate against a reaction with PGE2 alone at 10 nM, a concentration that produces a submaximal cAMP producing effect.
# Sequence of human EP4 receptor (P35408 whole entry): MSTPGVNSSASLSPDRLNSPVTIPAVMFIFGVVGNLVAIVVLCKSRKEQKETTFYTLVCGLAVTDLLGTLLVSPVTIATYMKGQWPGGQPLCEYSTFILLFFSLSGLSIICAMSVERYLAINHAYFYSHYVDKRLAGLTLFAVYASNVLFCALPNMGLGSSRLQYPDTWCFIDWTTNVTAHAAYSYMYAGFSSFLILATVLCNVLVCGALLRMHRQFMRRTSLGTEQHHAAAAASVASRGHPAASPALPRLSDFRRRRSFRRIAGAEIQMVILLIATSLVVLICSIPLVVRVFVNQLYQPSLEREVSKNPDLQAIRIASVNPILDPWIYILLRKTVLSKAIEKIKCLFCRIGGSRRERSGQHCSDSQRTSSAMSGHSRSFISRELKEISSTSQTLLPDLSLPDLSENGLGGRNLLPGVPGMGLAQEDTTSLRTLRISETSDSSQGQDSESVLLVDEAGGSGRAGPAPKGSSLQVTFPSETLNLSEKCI
row,SMILES,IC50 [nM]
1,"COCCNC(=O)c1ccc2c(C3CC3)cn(C(C)C(=O)Nc3cc(C#N)ccc3CCCC(=O)O)c2c1 (single isomer, unassigned) [Example 11-25(2), 4-{4-cyano-2-[(2-{3-cyclopropyl-6-[(2-methoxyethyl)carbamoyl]-1H-indol-1-yl}propanoyl)amino]phenyl}butanoic acid]",0.57
2,"Cc1cn(C(C)C(=O)Nc2cc(C#N)ccc2CCCC(=O)O)c2cc(C(=O)NCc3ccccc3)ccc12 (centres unmarked) [Example 11-8, 4-[2-({2-[6-(benzylcarbamoyl)-3-methyl-1H-indol-1-yl]propanoyl}amino)-4-cyanophenyl]butanoic acid]",4
3,"COCCNC(=O)c1ccc2c(C)cn(C(C)C(=O)Nc3cc(F)ccc3CCCC(=O)O)c2c1 (single isomer, unassigned) [Example 11-30(2), 4-{4-fluoro-2-[(2-{6-[(2-methoxyethyl)carbamoyl]-3-methyl-1H-indol-1-yl}propanoyl)amino]phenyl}butanoic acid]",12
4,"COCCNC(=O)c1ccc2ccn(C(C)C(=O)Nc3cc(C#N)ccc3CCCC(=O)O)c2c1 (single isomer, unassigned) [Example 10-1(2), 4-{4-cyano-2-[(2-{6-[(2-methoxyethyl)carbamoyl]-1H-indol-1-yl}propanoyl)amino]phenyl}butanoic acid]",3.7
5,"CNC(=O)c1ccc2c(C)cn(C(C)C(=O)Nc3cc(Oc4ccccc4)ccc3CCCC(=O)O)c2c1 (centres unmarked) [Example 13, 4-[2-({2-[3-methyl-6-(methylcarbamoyl)-1H-indol-1-yl]propanoyl}amino)-4-phenoxyphenyl]butanoic acid]",0.79
6,"CNC(=O)c1ccc2c(C3CC3)cn(C(C)C(=O)Nc3cc(C#N)ccc3CCCC(=O)O)c2c1 (single isomer, unassigned) [Example 11-23(2), 4-[4-cyano-2-({2-[3-cyclopropyl-6-(methylcarbamoyl)-1H-indol-1-yl]propanoyl}amino)phenyl]butanoic acid]",6.5
7,"COCCNC(=O)c1ccc2c(C)cn(C(C)C(=O)Nc3cc(Cn4cnc(C(F)(F)F)n4)ccc3CCCC(=O)O)c2c1 (single isomer, unassigned) [Example 7-1(2), 4-(2-[(2-{6-[(2-methoxyethyl)carbamoyl]-3-methyl-1H-indol-1-yl}propanoyl)amino]-4-{[3-(trifluoromethyl)-1H-1,2,4-triazol-1-yl]methyl}phenyl)butanoic acid]",3.3
8,"Cc1cn(C(C)C(=O)Nc2cc(C#N)ccc2CCCC(=O)O)c2cc(C(=O)NC3CCCC3)ccc12 (single isomer, unassigned) [Example 11-11(2), 4-[4-cyano-2-({2-[6-(cyclopentylcarbamoyl)-3-methyl-1H-indol-1-yl]propanoyl}amino)phenyl]butanoic acid]",2
9,CNC(=O)c1ccc2c(C)cn(C(C)C(=O)Nc3cc(C(O)c4cnn(C)c4)ccc3CCCC(=O)O)c2c1 (centres unmarked) [Example 18-3],6.2
10,"CC(C(=O)Nc1cc(C#N)ccc1CCCC(=O)O)c1c[nH]c2ccccc12 (centres unmarked) [4-[4-cyano-2-[2-(indol-3-yl)propanoylamino]phenyl]butanoic acid, reference compound]",360
11,"Cc1cn(C(C)C(=O)Nc2cc(C#N)ccc2CCCC(=O)O)c2cc(C(=O)NC(C)(C)C)ccc12 (single isomer, unassigned) [Example 11-7(2), 4-{4-cyano-2-[(2-{3-methyl-6-[(2-methyl-2-propanyl)carbamoyl]-1H-indol-1-yl}propanoyl)amino]phenyl}butanoic acid]",1.6

# Now from value to compound:
row,IC50 [nM],SMILES
1,6.4,"CNC(=O)c1ccc2c(C)cn(C(C)C(=O)Nc3cc(-c4nnc(C)o4)ccc3CCCC(=O)O)c2c1 (single isomer, unassigned) [Example 15-1(2), 4-[2-({2-[3-methyl-6-(methylcarbamoyl)-1H-indol-1-yl]propanoyl}amino)-4-(5-methyl-1,3,4-oxadiazol-2-yl)phenyl]butanoic acid]"
2,2.5,"CNC(=O)c1ccc2c(C)cn(C(C)C(=O)Nc3cc(Cn4cnc(C5CC5)n4)ccc3CCCC(=O)O)c2c1 (single isomer, unassigned) [Example 4-1(2), 4-{4-[(3-cyclopropyl-1H-1,2,4-triazol-1-yl)methyl]-2-({2-[3-methyl-6-(methylcarbamoyl)-1H-indol-1-yl]propanoyl}amino)phenyl}butanoic acid]"
3,1.5,"CNC(=O)c1ccc2c(C)cn(C(C)C(=O)Nc3cc(Cn4cnc(C(F)(F)F)n4)ccc3CCCC(=O)O)c2c1 (single isomer, unassigned) [Example 7-3(2), 4-[2-({2-[3-methyl-6-(methylcarbamoyl)-1H-indol-1-yl]propanoyl}amino)-4-{[3-(trifluoromethyl)-1H-1,2,4-triazol-1-yl]methyl}phenyl]butanoic acid]"
4,3.3,"CNC(=O)c1ccc2c(C)cn(C(C)C(=O)Nc3cc(Cn4cc(Cl)cn4)ccc3CCCC(=O)O)c2c1 (centres unmarked) [Example 1-14, 4-{4-[(4-chloro-1H-pyrazol-1-yl)methyl]-2-({2-[3-methyl-6-(methylcarbamoyl)-1H-indol-1-yl]propanoyl}amino)phenyl}butanoic acid]"
5,4.6,"CNC(=O)c1ccc2c(C3CC3)cn(C(C)C(=O)Nc3cc(Cn4cc(C)cn4)ccc3CCCC(=O)O)c2c1 (single isomer, unassigned) [Example 9-1(2), 4-{2-({2-[3-cyclopropyl-6-(methylcarbamoyl)-1H-indol-1-yl]propanoyl}amino)-4-[(4-methyl-1H-pyrazol-1-yl)methyl]phenyl}butanoic acid]"
6,4.9,"CNC(=O)c1ccc2c(C)cn(C(C)C(=O)Nc3cc(COc4cc(C)nc(C)c4)ccc3CCCC(=O)O)c2c1 (centres unmarked) [Example 1-5, 4-[4-{[(2,6-dimethyl-4-pyridinyl)oxy]methyl}-2-({2-[3-methyl-6-(methylcarbamoyl)-1H-indol-1-yl]propanoyl}amino)phenyl]butanoic acid]"
7,3.3,"Cc1cnn(Cc2ccc(CCCC(=O)O)c(NC(=O)C(C)n3cc(C)c4cc(C(=O)NC(C)C)ccc43)c2)c1 (single isomer, unassigned) [Example 8-9(2), 4-{2-({2-[5-(isopropylcarbamoyl)-3-methyl-1H-indol-1-yl]propanoyl}amino)-4-[(4-methyl-1H-pyrazol-1-yl)methyl]phenyl}butanoic acid]"
8,1.4,"Cc1cnn(Cc2ccc(CCCC(=O)O)c(NC(=O)C(C)n3cc(C)c4ccc(C(=O)NCC5CC5)cc43)c2)c1 (single isomer, unassigned) [Example 3-20(2), 4-{2-[(2-{6-[(cyclopropylmethyl)carbamoyl]-3-methyl-1H-indol-1-yl}propanoyl)amino]-4-[(4-methyl-1H-pyrazol-1-yl)methyl]phenyl}butanoic acid]"
9,2.2,"COCCNC(=O)c1ccc2c(C3CC3)cn(C(C)C(=O)Nc3cc(Cn4cc(C)cn4)ccc3CCCC(=O)O)c2c1 (single isomer, unassigned) [Example 9-5(2), 4-{2-[(2-{3-cyclopropyl-6-[(2-methoxyethyl)carbamoyl]-1H-indol-1-yl}propanoyl)amino]-4-[(4-methyl-1H-pyrazol-1-yl)methyl]phenyl}butanoic acid]"
10,39,"CNC(=O)c1ccc2c(C)cn(C(C)C(=O)Nc3cc(CN4CCCCS4(=O)=O)ccc3CCCC(=O)O)c2c1 (centres unmarked) [Example 2, 4-{4-[(1,1-dioxide-1,2-thiazinan-2-yl)methyl]-2-({2-[3-methyl-6-(methylcarbamoyl)-1H-indol-1-yl]propanoyl}amino)phenyl}butanoic acid]"
11,8.6,"Cc1cnn(Cc2ccc(CCCC(=O)O)c(NC(=O)C(C)n3cc(C)c4cc(C(=O)N5CCCC5)ccc43)c2)c1 (single isomer, unassigned) [Example 8-17(2), 4-{4-[(4-methyl-1H-pyrazol-1-yl)methyl]-2-({2-[3-methyl-5-(1-pyrrolidinylcarbonyl)-1H-indol-1-yl]propanoyl}amino)phenyl}butanoic acid]"
12,2.7,"CNC(=O)c1ccc2c(C)cn(C(C)C(=O)Nc3cc(C#N)ccc3CCCC(=O)O)c2c1 (single isomer, unassigned) [Example 11-3(2), 4-[4-cyano-2-({2-[3-methyl-6-(methylcarbamoyl)-1H-indol-1-yl]propanoyl}amino)phenyl]butanoic acid]"
13,1.7,"Cc1cnn(Cc2ccc(CCCC(=O)O)c(NC(=O)C(C)n3cc(C)c4ccc(C(=O)NC(C)C)cc43)c2)c1 (single isomer, unassigned) [Example 3-7(2), 4-{2-({2-[6-(isopropylcarbamoyl)-3-methyl-1H-indol-1-yl]propanoyl}amino)-4-[(4-methyl-1H-pyrazol-1-yl)methyl]phenyl}butanoic acid]"
14,2.7,"CNC(=O)c1ccc2c(C)cn(C(C)C(=O)Nc3cc(Cn4cc(F)cn4)ccc3CCCC(=O)O)c2c1 (single isomer, unassigned) [Example 4-8(2), 4-{4-[(4-fluoro-1H-pyrazol-1-yl)methyl]-2-({2-[3-methyl-6-(methylcarbamoyl)-1H-indol-1-yl]propanoyl}amino)phenyl}butanoic acid]"
15,1.6,"CNC(=O)c1ccc2c(C)cn(C(C)C(=O)Nc3cc(Cn4cc(C)cn4)ccc3CCCC(=O)O)c2c1 (single isomer, unassigned) [Example 12-1(2), 4-{2-({2-[3-methyl-6-(methylcarbamoyl)-1H-indol-1-yl]propanoyl}amino)-4-[(4-methyl-1H-pyrazol-1-yl)methyl]phenyl}butanoic acid]"
